One data set addresses wtEGFR (Homo sapiens (Human), UniProt P00533). Put plainly: HotSpot radiometric kinase activity assay, EGFR WT. It counts as biochemical. The procedure:
(§1) The purpose of the wtERBB2, ERBB2-A775_G776insYVMA (ERBB2YVMA), wtEGFR biochemical assay was to evaluate the inhibition (% inhibition and IC50 values) of the small molecule inhibitors by using the “HotSpot” radiometric kinase activity assay. HotSpot assays monitor the […] of kinase substrate by the radioactive gamma phosphate of adenosine triphosphate (33P-ATP) during biochemical reactions. HotSpot assays was performed in steps upon completion of the kinase reaction: deposition of a reaction mixture aliquot onto P81 ion exchange paper, extensive washing of the aforementioned P81 paper using phosphoric acid to remove unbound radiolabeled 33P-ATP from the P81 paper, and finally visualization and quantification of the dried P81 paper utilizing a phosphoimager. […] Typical reaction solutions (10 μL final reaction volume) contained the following buffer conditions: 20 mM Hepes (pH 7.5), 10 mM MgCl2, 1 mM EGTA, 0.01% Brij35, 0.02 mg/mL BSA, 0.1 mM Na3VO4, 2 mM DTT, 1% DMSO. The assay was primed by preparing a fresh 0.2 mg/mL solution of pEY (Sigma Cat: P7244) substrate in the reaction buffer and supplementing that solution with […] of MnCl2 as substrate cofactor (Sigma Cat: M9522). The kinase of interest was then added to the solution at the appropriate concentration (30 nM wtERBB2 from, or 20 nM ERBB2YVMA, or 4 nM wtEGFR) and gently mixed prior to delivery of compound in 100% DMSO by acoustic dispensing (Beckman Echo550). Compound, Kinase, and substrate were allowed to incubate for 20 minutes at room temperature prior to the initiation of the reaction by addition of 33P-ATP (PerkinElmer Cat: NEG602, final conc 10 μM). […] IC50 determinations were made from a plot of kinase activity as a function of inhibitor concentration fit to the 4-parameter IC50 equation with the enzyme concentration held constant using GraphPad Prism (San Diego).

In another data set the target is wtERBB2 (Homo sapiens (Human), UniProt P04626). As to the kind of experiment: HotSpot radiometric kinase activity assay, HER2 WT. The format is biochemical. Here is the method: as §1
A further data set has as its target ERBB2-A775_G776insYVMA (Homo sapiens (Human), UniProt P04626, INS775YVMA). Put plainly: HotSpot radiometric kinase activity assay, HER2 YVMA. It counts as biochemical. Here is the method:
as §1

The target of a further data set is EGFR (Homo sapiens (Human), UniProt P00533). Put plainly: Enzyme inactivation kinetics, EGFR. The format is biochemical. Particulars: Table 23.
The nature of the next data set: in vivo. Particulars: mouse, tumor/plasma.
The subject of data set [1] is BT-474 breast cancer cell line. Put plainly: BT-474 xenograft tumor growth inhibition. It counts as in vivo, mouse. Particulars: clinical reference compounds. The procedure:
The tumor cells were routinely sub-cultured after confluence by trypsin-EDTA treatment, not to exceed 4-5 passages. The cells growing in an exponential growth phase were harvested and counted for tumor inoculation.
Tumor size and body weight measurement was conducted twice weekly.

Data set [2] relates to NCI-N87-luciferase gastric cancer cell line. Put plainly: Intracranial NCI-N87-luciferase tumor model. Particulars: for Tumor Growth Inhibition: intracranial NCI-N87, 100 mg/kg QD.
The next data set concerns MDAMB453. Put plainly: MDAMB453 breast cancer model. As to conditions: 100 mg/kg PO daily for 14 days.
The next data set relates to BaF3 P95Her2. Particulars: 100 mg/kg PO daily for 20 days.
The test system of a further data set is HCC1954. As to the kind of experiment: HCC1954 xenograft tumor growth inhibition. It counts as in vivo, mouse. The procedure:
HCC1954 cells were thawed and cultured in vitro, and the HCC1954 cells were harvested for in vivo inoculation. After one week of acclimation, 16 female 6-8 weeks-old mice were used. After inoculation, the tumor volume and body weight of the mice were measured three times per week. When the average tumor volume reaches about 200 mm^3, mice were randomly grouped into 2 groups according to the tumor volume and body weight. Test drugs were administrated immediately afterward. Tumor volume and body weight measurements were taken twice a week. At the end of the study, tumor and plasma samples were collected. The mouse grouping and test material treatment for tumor growth inhibition is listed Table 7. Tumor size and body weight measurement were conducted twice weekly. At the end of study, Group 1 and Group 2 were split into 2 sub-groups, dosed and samples collected as described Table 8. At the end of treatment, tumor samples were collected for pharmacodynamic (PD) analysis.

The subject of a further data set is KYSE410. Put plainly: KYSE410 tumor model (HER2+ and KRAS G12C). Particulars: Compound 5 at 250 mg/kg.
The subject of the next data set is JIMT-1. As to the kind of experiment: JIMT-1 breast tumor model. Particulars: 20/15 mg/kg PO daily for 9 then 12 days.

Entries after “also recorded” stand apart in the source; their conditions may differ.

Sequence of wtERBB2 (P04626 23-1255): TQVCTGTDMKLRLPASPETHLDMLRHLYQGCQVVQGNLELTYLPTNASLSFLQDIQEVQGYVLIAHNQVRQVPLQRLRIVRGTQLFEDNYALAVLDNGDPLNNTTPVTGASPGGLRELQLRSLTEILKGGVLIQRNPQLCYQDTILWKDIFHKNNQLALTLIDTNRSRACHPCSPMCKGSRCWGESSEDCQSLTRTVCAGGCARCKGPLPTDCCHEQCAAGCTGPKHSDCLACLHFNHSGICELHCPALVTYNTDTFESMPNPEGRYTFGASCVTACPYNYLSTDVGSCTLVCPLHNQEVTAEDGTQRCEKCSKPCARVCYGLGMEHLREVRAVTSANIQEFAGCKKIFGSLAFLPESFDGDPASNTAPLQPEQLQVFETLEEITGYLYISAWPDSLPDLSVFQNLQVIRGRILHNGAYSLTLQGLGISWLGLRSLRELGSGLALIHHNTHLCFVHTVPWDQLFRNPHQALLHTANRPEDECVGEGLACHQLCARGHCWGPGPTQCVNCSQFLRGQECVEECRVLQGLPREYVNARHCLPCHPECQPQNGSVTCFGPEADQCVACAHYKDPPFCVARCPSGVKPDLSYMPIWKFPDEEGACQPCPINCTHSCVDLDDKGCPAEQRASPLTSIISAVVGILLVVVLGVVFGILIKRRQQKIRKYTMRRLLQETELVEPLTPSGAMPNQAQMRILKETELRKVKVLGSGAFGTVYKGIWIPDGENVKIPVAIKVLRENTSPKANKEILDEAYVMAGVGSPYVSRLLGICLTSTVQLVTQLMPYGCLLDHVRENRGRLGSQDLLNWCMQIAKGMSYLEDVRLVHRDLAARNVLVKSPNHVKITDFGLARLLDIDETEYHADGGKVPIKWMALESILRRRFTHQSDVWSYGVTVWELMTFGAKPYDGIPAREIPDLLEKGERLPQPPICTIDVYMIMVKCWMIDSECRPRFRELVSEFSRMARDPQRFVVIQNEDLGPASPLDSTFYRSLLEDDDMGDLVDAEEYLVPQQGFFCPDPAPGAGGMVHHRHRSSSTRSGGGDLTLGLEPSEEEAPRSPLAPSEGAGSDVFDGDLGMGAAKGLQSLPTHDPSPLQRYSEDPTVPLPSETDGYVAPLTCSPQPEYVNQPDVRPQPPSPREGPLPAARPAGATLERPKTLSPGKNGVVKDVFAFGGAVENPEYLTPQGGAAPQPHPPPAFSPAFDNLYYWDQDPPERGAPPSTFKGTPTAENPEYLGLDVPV
Sequence of EGFR (P00533 25-1210): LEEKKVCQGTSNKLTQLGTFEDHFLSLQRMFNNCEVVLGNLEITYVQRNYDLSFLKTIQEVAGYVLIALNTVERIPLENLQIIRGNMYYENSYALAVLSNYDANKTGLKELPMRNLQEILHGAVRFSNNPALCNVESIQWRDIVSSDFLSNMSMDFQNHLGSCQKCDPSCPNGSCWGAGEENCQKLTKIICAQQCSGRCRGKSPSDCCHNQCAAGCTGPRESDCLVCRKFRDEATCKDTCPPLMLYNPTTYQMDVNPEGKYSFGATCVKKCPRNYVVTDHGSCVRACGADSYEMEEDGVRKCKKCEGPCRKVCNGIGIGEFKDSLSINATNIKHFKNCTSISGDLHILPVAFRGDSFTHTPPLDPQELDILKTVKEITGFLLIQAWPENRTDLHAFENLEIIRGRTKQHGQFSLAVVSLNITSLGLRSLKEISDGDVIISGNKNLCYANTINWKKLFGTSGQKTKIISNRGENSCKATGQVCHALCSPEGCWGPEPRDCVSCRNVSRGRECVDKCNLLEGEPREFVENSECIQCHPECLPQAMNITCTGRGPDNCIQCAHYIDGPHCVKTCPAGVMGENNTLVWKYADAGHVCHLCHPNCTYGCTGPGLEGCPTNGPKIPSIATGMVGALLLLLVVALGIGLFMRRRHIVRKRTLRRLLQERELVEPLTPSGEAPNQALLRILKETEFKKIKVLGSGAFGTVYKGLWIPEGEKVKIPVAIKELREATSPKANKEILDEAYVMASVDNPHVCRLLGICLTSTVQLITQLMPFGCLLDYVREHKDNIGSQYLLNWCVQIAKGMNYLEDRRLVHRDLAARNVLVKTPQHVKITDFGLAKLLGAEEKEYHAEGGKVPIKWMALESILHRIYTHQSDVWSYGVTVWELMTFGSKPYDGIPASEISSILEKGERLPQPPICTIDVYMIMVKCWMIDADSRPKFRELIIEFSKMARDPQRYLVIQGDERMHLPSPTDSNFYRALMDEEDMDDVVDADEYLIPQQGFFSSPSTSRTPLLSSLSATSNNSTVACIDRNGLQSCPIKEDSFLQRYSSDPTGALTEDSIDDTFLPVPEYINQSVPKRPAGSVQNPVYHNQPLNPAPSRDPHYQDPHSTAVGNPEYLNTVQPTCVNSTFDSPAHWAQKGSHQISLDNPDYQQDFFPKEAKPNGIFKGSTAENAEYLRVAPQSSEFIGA
Sequence of wtEGFR (P00533 25-1210): as above
Sequence of ERBB2-A775_G776insYVMA (P04626 other isoform, or with tags, fused parts or gaps del 1-675/ins YVMA behind 775 limits assumed): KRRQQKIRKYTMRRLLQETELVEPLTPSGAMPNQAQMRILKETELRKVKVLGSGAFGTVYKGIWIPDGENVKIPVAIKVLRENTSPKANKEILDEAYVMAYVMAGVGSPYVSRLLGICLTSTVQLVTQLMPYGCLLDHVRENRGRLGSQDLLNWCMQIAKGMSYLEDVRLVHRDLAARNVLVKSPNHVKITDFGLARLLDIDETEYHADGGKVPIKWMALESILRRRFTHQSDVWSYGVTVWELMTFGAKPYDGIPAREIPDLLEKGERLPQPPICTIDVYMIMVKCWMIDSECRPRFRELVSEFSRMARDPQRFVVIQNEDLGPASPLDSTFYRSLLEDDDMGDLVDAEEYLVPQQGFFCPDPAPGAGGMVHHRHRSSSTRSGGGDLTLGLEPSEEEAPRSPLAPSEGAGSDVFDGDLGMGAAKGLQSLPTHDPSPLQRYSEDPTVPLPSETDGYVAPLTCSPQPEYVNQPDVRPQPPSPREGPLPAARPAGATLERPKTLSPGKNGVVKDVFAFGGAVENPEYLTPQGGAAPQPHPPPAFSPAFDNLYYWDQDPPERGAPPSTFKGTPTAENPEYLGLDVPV

For the molecule `Cc1cc(Nc2ncnn3ccc(C4CN(C(=O)/C=C/CN(C)C)C4)c23)ccc1Oc1ccn2ncnc2c1` [Compound 1, (E)-1-(3-(4-((4-([1,2,4]triazolo[1,5-a]pyridin-7-yloxy)-3-methylphenyl)amino)pyrrolo[2,1-f][1,2,4]triazin-5-yl)azetidin-1-yl)-4-(dimethylamino)but-2-en-1-one], the IC50 at wtEGFR, against wtERBB2 and against ERBB2-A775_G776insYVMA was less than 200 nM in each case.
`C=CC(=O)N1CCN(c2ccn3ncnc(Nc4ccc(Oc5ccn6ncnc6c5)c(C)c4)c23)CC1` [Compound 3, 1-(4-(4-((4-([1,2,4]triazolo[1,5-a]pyridin-7-yloxy)-3-methylphenyl)amino)pyrrolo[2,1-f][1,2,4]triazin-5-yl)piperazin-1-yl)prop-2-en-1-one]: the IC50 against wtEGFR, against wtERBB2 and against ERBB2-A775_G776insYVMA was less than 200 nM each time.
Regarding `C=CC(=O)N1CCC(c2ccn3ncnc(Nc4ccc(Oc5ccn6ncnc6c5)c(C)c4)c23)CC1` [Compound 4, 1-(4-(4-((4-([1,2,4]triazolo[1,5-a]pyridin-7-yloxy)-3-methylphenyl)amino)pyrrolo[2,1-f][1,2,4]triazin-5-yl)piperidin-1-yl)prop-2-en-1-one], the IC50 against wtEGFR, on wtERBB2 and against ERBB2-A775_G776insYVMA was less than 200 nM in each case.
Consider `C=CC(=O)N1CC(c2ccn(-c3ccn4ncnc(Nc5ccc(Oc6ccn7ncnc7c6)c(C)c5)c34)n2)C1` [Compound 8, 1-(3-(1-(4-((4-([1,2,4]triazolo[1,5-a]pyridin-7-yloxy)-3-methylphenyl)amino)pyrrolo[2,1-f][1,2,4]triazin-5-yl)-1H-pyrazol-3-yl)azetidin-1-yl)prop-2-en-1-one], for which the IC50 against wtEGFR, on wtERBB2 and on ERBB2-A775_G776insYVMA was less than 200 nM each time.
Turning to `Cc1cc(Nc2ncnn3ccc(C4CCCN(C(=O)/C=C/CN(C)C)CC4)c23)ccc1Oc1ccn2ncnc2c1` (centres unmarked) [Compound 12, (E)-1-(4-(4-((4-([1,2,4]triazolo[1,5-a]pyridin-7-yloxy)-3-methylphenyl)amino)pyrrolo[2,1-f][1,2,4]triazin-5-yl)azepan-1-yl)-4-(dimethylamino)but-2-en-1-one], the IC50 against wtERBB2 and at ERBB2-A775_G776insYVMA was less than 200 nM each time.
Consider `Cc1cc(Nc2ncnn3ccc(C4CC5(C4)CN(C(=O)/C=C/CN(C)C)C5)c23)ccc1Oc1ccn2ncnc2c1` [Compound 13, (E)-1-(6-(4-((4-([1,2,4]triazolo[1,5-a]pyridin-7-yloxy)-3-methylphenyl)amino)pyrrolo[2,1-f][1,2,4]triazin-5-yl)-2-azaspiro[3.3]heptan-2-yl)-4-(dimethylamino)but-2-en-1-one], for which the IC50 against wtERBB2 and at ERBB2-A775_G776insYVMA was less than 200 nM throughout.
As to `Cc1cc(Nc2ncnn3ccc(-c4cnn(CCNC(=O)/C=C/CN(C)C)c4)c23)ccc1Oc1ccn2ncnc2c1` [Compound 14, (E)-N-(2-(4-(4-((4-([1,2,4]triazolo[1,5-a]pyridin-7-yloxy)-3-methylphenyl)amino)pyrrolo[2,1-f][1,2,4]triazin-5-yl)-1H-pyrazol-1-yl)ethyl)-4-(dimethylamino)but-2-enamide], the half-inhibitory concentration (IC50) at wtERBB2 is less than 200 nM.
For `Cc1noc2ccc(C(=O)Nc3ccc4[nH]c(CN5CCCC5)nc4c3)cc12` [ELVN-002], at EGFR, the “EGFR kinact (s − 1)” value is 1.1 × 10^−2 s − 1, the “HER2 vs. EGFR Kinetic Selectivity” value was determined as 47 and the Ki is 680 nM.
`C=CC(=O)N1CCC(Oc2cc3c(Nc4ccc(Cl)c(Cl)c4F)ncnc3cc2OC)CC1` [Poziotinib]: the Kp at 4 h in the data set “in vivo” was 0.36.
In the case of `CCOc1cc2ncnc(Nc3ccc(Oc4ccn5ncnc5c4)c(C)c3)c2cc1NC(=O)/C(F)=C/[C@H]1CCCN1C` [SPH5030], in [1], the “TR compared with Compound 5” value is recorded as “significantly less TR than Compound 5”.
For the molecule `Cc1cc(Nc2ncnc3ccc(NC4=NC(C)(C)CO4)cc23)ccc1Oc1ccn2ncnc2c1` [Tucatinib], the “antitumor effect in intracranial model, in words” value in [2] (NCI-N87-luc intracranial xenograft) is reported as “only modest single agent effect”. The “Tumor Growth Inhibition” value in [2] (Day 5) is reported as 9%; in [2] (Day 9), −11%; in [2] (Day 13) it was −14%; in data set [2] (Day 16), 18%; in data set [2] (Day 19), 45%; in data set [2] (Day 23), 25%. In addition, the “Tumor Growth Inhibition” value in [2] (Day 26) is given as 30%. Further, the “TR compared with Compound 5” value in data set [1] is listed as “significantly less TR than Compound 5”. Moreover, the “TGI (tumor growth inhibition)” value was determined as 90% with MDAMB453; 99% in the data set with BaF3 P95Her2; 30% in the data set with HCC1954 (HCC1954, 100 mg/kg PO daily for 21 days). Besides, the anti-tumor effect result with HCC1954 (HCC1954, comparator) is “tumor stasis”. In addition, the “anti-tumor effect (FIG. 29)” value in the data set on HCC1954 (HCC1954 xenograft, Compound 5 100 and 250 mg/kg, tucatinib 100 mg/kg) is on record as “did not achieve tumor stasis”. Further, in the data set on KYSE410, the “anti-tumor activity, in words” value is on record as “ineffective; also recorded: weak or no activity; also recorded: weak/no activity”.
The molecule `Cc1nc(NC(=O)N2CCC[C@H]2C(N)=O)sc1-c1ccnc(C(C)(C)C(F)(F)F)c1` [alpilisib] registered an inhibition of tumour growth (TGI) in the data set with JIMT-1 of 64%.
